Results: patent US8629143B2, “Potassium channel modulators” (AbbVie Inc., priority 2009, dated 2014)

Target: T1, KCNQ 2/3 channels (HEK293 cells stably expressing human KCNQ2 and KCNQ3 subunits) (Homo sapiens, UniProt O43525+O43526)
T1 construct: expressed in transfected cells; host or cells: HEK293
Assay: KCNQ2/3 channel activation, thallium flux FLIPR assay with BTC-AM dye
Format: cell-based
Conditions: for Emax: HEK293, maximum response relative to the response produced by 10 μM retigabine (set at 100%), read-out: Max. %; for EC50: HEK293 cells expressing human KCNQ2 and KCNQ3, thallium flux, FLIPR
Description: The following example describes the assay that can be used to identify compounds that activate KCNQ 2/3 channels.
HEK293 cells stably expressing human KCNQ2 and KCNQ3 subunits were seeded in 96-well, black-walled, clear-bottomed, poly-D-lysine coated plates (BD Biosciences, Bedford, Mass.) at a density of 1×10^5 cells per well 24 hours before the assay. On the assay day, BTC-AM dye (Invitrogen, Carlsbad, Calif.) was loaded into the cells by replacing the cell culture medium with 55 μL/well of 3 μg/mL dye in DPBS. Dye loading was allowed to proceed for 2 hours at room temperature and then cells were washed twice with 50 μL/well of assay buffer (in mM: 10 HEPES pH 7.3, 5 glucose, 140 Na-gluconate, 2.5 K-gluconate, 3.6 Ca-gluconate, 2 MgSO4, 0.1 Ouabain) to remove unloaded dye. Cells were incubated in 50 μL of assay buffer before loading onto a FLIPR system (Molecular Devices, Sunnyvale, Calif.). Various concentrations of compounds to be assayed were added to the cells in 50 μL of assay buffer and incubated for 4 minutes. The fluorescence signal was initiated by adding 100 μL of assay buffer containing 6 mM TlNO3 and 10 mM K2SO4. Fluors were excited using the 488-nm line of an argon laser and emission was filtered using a 540±30 nm bandpass filter. Fluorescent signals were recorded for 3 minutes. Sums of the responses over basal responses were plotted versus concentrations of test compounds to obtain an EC50 value. The maximum response for each test compound was determined relative to the response produced by 10 μM retigabine. The maximum response of retigabine at 10 μM was set at 100%.

Emax [%] | EC50 [nM] | Compound
79 | 1000 to 10000 | CC(C)c1nn(NC(=O)CC23CC4CC(CC(C4)C2)C3)c(=O)c2c1C1CCC2CC1 [Example 8, 2-(1-adamantyl)-N-(4-isopropyl-1-oxo-5,6,7,8-tetrahydro-5,8-ethanophthalazin-2(1H)-yl)acetamide]
241 | 500 to 1000 | O=C(CC12CC3CC(CC(C3)C1)C2)Nn1nc(-c2ccccc2)c2sccc2c1=O [Example 9, 2-(1-adamantyl)-N-(4-oxo-7-phenylthieno[2,3-d]pyridazin-5(4H)-yl)acetamide]
179 | 1000 to 10000 | O=C(Cc1cc(F)cc(F)c1)Nn1nc(-c2ccccc2)c2sccc2c1=O [Example 10, 2-(3,5-difluorophenyl)-N-(4-oxo-7-phenylthieno[2,3-d]pyridazin-5(4H)-yl)acetamide]
77 | 100 to 500 | O=C(Cc1cc(F)cc(F)c1)Nn1nc(C(F)(F)F)c2ccccc2c1=O [Example 11, 2-(3,5-difluorophenyl)-N-[1-oxo-4-(trifluoromethyl)phthalazin-2(1H)-yl]acetamide]
169 | 100 to 500 | O=C(CC12CC3CC(CC(C3)C1)C2)Nn1nc(C(F)(F)F)c2ccccc2c1=O [Example 12, 2-(1-adamantyl)-N-[1-oxo-4-(trifluoromethyl)phthalazin-2(1H)-yl]acetamide]
47 | 100 to 500 | O=C(Cc1ccc(Cl)cc1)Nn1nc(C(F)(F)F)c2ccccc2c1=O [Example 13, 2-(4-chlorophenyl)-N-[1-oxo-4-(trifluoromethyl)phthalazin-2(1H)-yl]acetamide]
171 | 100 to 500 | O=C(Cc1ccc(F)cc1)Nn1nc(-c2ccccc2)c2c(F)ccc(F)c2c1=O [Example 14, N-(5,8-difluoro-1-oxo-4-phenylphthalazin-2(1H)-yl)-2-(4-fluorophenyl)acetamide]
140 | < 100 | O=C(CC12CC3CC(CC(C3)C1)C2)Nn1nc(-c2ccccc2)c2c(F)ccc(F)c2c1=O [Example 15, 2-(1-adamantyl)-N-(5,8-difluoro-1-oxo-4-phenylphthalazin-2(1H)-yl)acetamide]
175 | 100 to 500 | O=C(Cc1ccc(Cl)cc1)Nn1nc(-c2ccccc2)c2c(F)ccc(F)c2c1=O [Example 16, 2-(4-chlorophenyl)-N-(5,8-difluoro-1-oxo-4-phenylphthalazin-2(1H)-yl)acetamide]
189 | 100 to 500 | O=C(Cc1cc(F)cc(F)c1)Nn1nc(-c2ccccc2)c2ccccc2c1=O [Example 18, 2-(3,5-difluorophenyl)-N-(1-oxo-4-phenylphthalazin-2(1H)-yl)acetamide]
45 | 1000 to 10000 | O=C(Cc1cc(F)cc(F)c1)Nn1nc(Cl)c2ccccc2c1=O [Example 19, N-(4-chloro-1-oxophthalazin-2(1H)-yl)-2-(3,5-difluorophenyl)acetamide]
123 | 100 to 500 | O=C(CC12CC3CC(CC(C3)C1)C2)Nn1nc(Cl)c2ccccc2c1=O [Example 20, 2-(1-adamantyl)-N-(4-chloro-1-oxophthalazin-2(1H)-yl)acetamide]
82 | 1000 to 10000 | O=C(Cc1ccc(Cl)cc1)Nn1nc(Cl)c2ccccc2c1=O [Example 21, N-(4-chloro-1-oxophthalazin-2(1H)-yl)-2-(4-chlorophenyl)acetamide]
63 | 1000 to 10000 | O=C(Cc1ccc(Cl)cc1)Nn1nc(C2CC2)c2ccccc2c1=O [Example 22, 2-(4-chlorophenyl)-N-(4-cyclopropyl-1-oxophthalazin-2(1H)-yl)acetamide]
156 | 500 to 1000 | O=C(Cc1cc(F)cc(F)c1)Nn1nc(C2CC2)c2ccccc2c1=O [Example 23, N-(4-cyclopropyl-1-oxophthalazin-2(1H)-yl)-2-(3,5-difluorophenyl)acetamide]
235 | < 100 | O=C(CC12CC3CC(CC(C3)C1)C2)Nn1nc(C2CC2)c2ccccc2c1=O [Example 24, 2-(1-adamantyl)-N-(4-cyclopropyl-1-oxophthalazin-2(1H)-yl)acetamide]
139 | 1000 to 10000 | O=C(Cc1cccc(F)c1F)Nn1nc(-c2ccccc2)c2ccccc2c1=O [Example 25, 2-(2,3-difluorophenyl)-N-(1-oxo-4-phenylphthalazin-2(1H)-yl)acetamide]
157 | 100 to 500 | O=C(Cc1ccc(F)cc1)Nn1nc(-c2ccccc2)c2ccccc2c1=O [Example 26, 2-(4-fluorophenyl)-N-(1-oxo-4-phenylphthalazin-2(1H)-yl)acetamide]
92 | 500 to 1000 | O=C(Cc1cc(F)ccc1F)Nn1nc(-c2ccccc2)c2ccccc2c1=O [Example 27, 2-(2,5-difluorophenyl)-N-(1-oxo-4-phenylphthalazin-2(1H)-yl)acetamide]
121 | 1000 to 10000 | Cc1nn(NC(=O)Cc2ccc(Cl)cc2)c(=O)c2ccccc12 [Example 28, 2-(4-chlorophenyl)-N-(4-methyl-1-oxophthalazin-2(1H)-yl)acetamide]
173 | 100 to 500 | O=C(CC12CC3CC(CC(C3)C1)C2)Nn1nc(-c2ccccc2)c2ccsc2c1=O [Example 29, 2-(1-adamantyl)-N-(7-oxo-4-phenylthieno[2,3-d]pyridazin-6(7H)-yl)acetamide]
94 | 1000 to 10000 | CC1(C)[C@H]2CC[C@@H](CC(=O)Nn3nc(-c4ccccc4)c4ccsc4c3=O)[C@@H]1C2 [Example 30, 2-[(1S,2S,5S)-6,6-dimethylbicyclo[3.1.1]hept-2-yl]-N-(7-oxo-4-phenylthieno[2,3-d]pyridazin-6(7H)-yl)acetamide]
30 | 1000 to 10000 | O=C(Cc1ccc(Cl)cc1)Nn1nc(-c2ccccc2)c2ccsc2c1=O [Example 31, 2-(4-chlorophenyl)-N-(7-oxo-4-phenylthieno[2,3-d]pyridazin-6(7H)-yl)acetamide]
46 | 1000 to 10000 | O=C(Cc1ccc(F)cc1)Nn1nc(-c2ccccc2)c2ccsc2c1=O [Example 32, 2-(4-fluorophenyl)-N-(7-oxo-4-phenylthieno[2,3-d]pyridazin-6(7H)-yl)acetamide]
140 | 1000 to 10000 | O=C(Cc1cc(F)cc(F)c1)Nn1nc(-c2ccccc2)c2ccsc2c1=O [Example 33, 2-(3,5-difluorophenyl)-N-(7-oxo-4-phenylthieno[2,3-d]pyridazin-6(7H)-yl)acetamide]
184 | 100 to 500 | CC(C)c1nn(NC(=O)CC23CC4CC(C)(CC(C)(C4)C2)C3)c(=O)c2ccccc12 [Example 34, 2-[3,5-dimethyl-1-adamantyl]-N-(4-isopropyl-1-oxophthalazin-2(1H)-yl)acetamide]
192 | 100 to 500 | O=C(Cc1cc(F)cc(F)c1)Nn1nc(-c2ccccc2)c2cc(F)ccc2c1=O [Example 35, 2-(3,5-difluorophenyl)-N-(6-fluoro-1-oxo-4-phenylphthalazin-2(1H)-yl)acetamide]
155 | 100 to 500 | O=C(Cc1ccc(Cl)cc1)Nn1nc(-c2ccccc2)c2cc(F)ccc2c1=O [Example 36, 2-(4-chlorophenyl)-N-(6-fluoro-1-oxo-4-phenylphthalazin-2(1H)-yl)acetamide]
